Measured values reported in article PMC10254773, “Identification of Flavonoids from Scutellaria barbata D. Don as Inhibitors of HIV-1 and Cathepsin L Proteases and Their Structure–Activity Relationships” (Molecules, 2023).

Target: T1, HIV-1 PR (HIV-1 protease) (HIV-1 M:B_HXB2R, UniProt P04585)
T1 construct: gene gag-pol; mature protease cut from Gag-Pol polyprotein (Pr160Gag-Pol); SensoLyte 520 HIV-1 assay kit; homodimer
Format: biochemical
Conditions: n = 3; read-out: HIV-1 PR / IC50 ± SD (mg/mL) (converted)

Question: How did the IC50 turn out when `O=c1cc(-c2ccc(O)cc2)oc2cc(O)cc(O)c12` [Apigenin] was run?
Answer: 481 µM

Question: `O=C(O)[C@H]1O[C@@H](Oc2cc3oc(-c4ccccc4)cc(=O)c3c(O)c2O)[C@H](O)[C@@H](O)[C@@H]1O` [Baicalin] was tested. Which IC50 did it give?
Answer: 1860 µM

Question: For `O=c1cc(-c2ccc(O)c(O)c2)oc2cc(O)cc(O)c12` [Luteolin], which IC50 is on record?
Answer: 136 µM

Question: How did the IC50 turn out when `O=C1C[C@@H](c2ccc(O)cc2)Oc2cc(O)cc(O)c21` [Narigenin] was run?
Answer: 661 µM

Question: Which IC50 does the source give for `O=c1cc(-c2ccc(O)cc2)oc2cc(O)c(O)c(O)c12` [Scutellarein] here?
Answer: 238 µM

Question: For `COc1c(O)cc(O)c2c(=O)cc(-c3ccccc3)oc12` [Wogonin], which IC50 is on record?
Answer: 1410 µM
